# Tested on: adipocytes differentiated from OP9 mouse stromal cell line (ATCC CRL-2749)
# Assay: Oil red O staining of the fat content of adipocytes treated with plant extracts or combinations
# Type: cell-based
# Conditions: for Relative fat content: 7-10 days, relative to control group (100%)
# Procedure: The neutral fat content of cells was determined by oil red O staining. Prior to staining, the cells were washed twice with PBS and then fixed with 10% formaldehyde at room temperature for 30 minutes. The fixed cells were washed twice with PBS and rinsed with 60% isopropanol for 1 minute. Thereafter, the cells were stained with an oil red O staining solution (1.8 mg/ml oil red O dissolved in 60% isopropanol aqueous solution) for 1 hour, and then treated with 60% isopropanol for 5 seconds to remove excess dye. Lastly, 100% isopropanol was added to the cells and incubated with shaking for 10 minutes to dissolve the intracellular dye, and the absorbance of the cell suspension at 510 nm was measured using an ELISA (enzyme-linked immunosorbent assay) reader (BioTek). The statistical significance of differences between data was determined by Student's t-test using the Excel software.
# Briefly, OP9 cells were seeded at 8×10^4 cells/well in 24-well culture plates, where each well contained 500 μl of pre-adipocyte expansion medium (90% DMEM, 20% FBS, and 1% penicillin/streptomycin), and cultured at 37° C. for 7 days. The medium was refreshed every 3 days during cell culture with adipocyte differentiation medium (90% DMEM medium, 20% FBS, and 1% penicillin/streptomycin). After 7 days, complete differentiation into adipocytes were confirmed by examining oil droplets formed in the cells using a microscope (ZEISS; at 400× magnification). Thereafter, each of the plant extracts or each of the compositions containing plant extracts, listed in TABLE 1, was added to the cells, which were then cultured at 37° C. for 7-10 days, during which the adipocyte differentiation medium was refreshed every 3 days. Finally, the medium was removed, and the cells of each group were washed with PBS and subjected to oil red O staining for determination of the fat content. The relative fat content is a ratio of the cellular fat content of the experimental group relative to that of the control group (expressed as a percentage). […]
Compound,Relative fat content (single treatment 0.015625 mg/ml),Relative fat content (single treatment 0.5 mg/ml),"Change of the fat content of adipocytes compared to the control group (in words) (sole treatment, concentrations as in TABLE 1, Student's t-test)"
CC(C)=CCC/C(C)=C/C=C/C(C)=C/C=C/C(C)=C/C=C/C=C(C)/C=C/C=C(C)/C=C/C=C(\C)CCC=C(C)C [Lycopene],73.34%,,
CC1=C(/C=C/C(C)=C/C=C/C(C)=C/C=C/C=C(C)/C=C/C=C(C)/C=C/C2=C(C)CCCC2(C)C)C(C)(C)CCC1 [β-carotene],,99.00%,did not significantly reduce the fat content
